Assay results as given in patent publication US20250179059A1 (The Regents of the University of California, priority 2021, published 2025).
Like-named read-outs stand apart in the source and are kept apart here.

Columns and labels:
[1] = target: T1, human BRD4 bromodomain II (Homo sapiens, UniProt O60885); experiment: Bromodomain binding assay (AlphaScreen), BRD4 BDII
T1 construct: human BRD4 bromodomain II [based on Genbank NM_058243, residues 349-460]; host or cells: E. coli
Summary of the method: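 Inhibition of acetyl-H4 peptide binding to human BRD4 bromodomains is measured by bead-based proximity (AlphaScreen) in pH 7.5 HEPES buffer containing 0.05% CHAPS and 0.1% BSA. Ten compound concentrations in 3-fold steps give competitive binding IC50s.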

[2] = test system: human SKM-1 acute myeloid leukemia cells; experiment: SKM-1 antiproliferation cell-based assay (ATPlite); conditions: Homo sapiens
Summary of the method: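 Log-phase cells in RPMI 1640/15% FBS were seeded at 34722 cells/mL and exposed for 4 days to nine-concentration DMSO serial dilutions in triplicate. Viability was read as ATP luminescence (ATPlite 1step), and IC50 values came from variable-slope non-linear regression.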

[3] = AlphaScreen assay, Table C2, read-out: BRD4 BDII IC50
[4] = SKM-1, 96 h, SKM-1 antiproliferation assay, 4 days, Table C2
[5] = BRD4 BDII AlphaScreen assay, read-out: BRD4 BD2 IC50
[6] = SKM-1, SKM-1 antiproliferation assay

SMILES	IC50 [1, 3]	GI50 [2, 4]	IC50 [1, 5]	GI50 [2, 6]
[2H]C([2H])([2H])n1ccn(-c2ccc(-c3cc(F)cc(-c4ccnc(N5CCNCC5)c4)c3O)cc2Cl)c1=O [Example 409, 1-(3-chloro-5′-fluoro-2′-hydroxy-3′-(2-(piperazin-1-yl)pyridin-4-yl)-[1,1′-biphenyl]-4-yl)-3-(trideuteromethyl)-1H-imidazol-2(3H)-one]	1 to 10 nM	0.3 to 30 nM		
Cn1ccn(-c2ccc(-c3cc(F)cc(-c4ccc(OC5CCNCC5)nc4)c3O)cc2Cl)c1=O [Example 445, 1-(3-chloro-5′-fluoro-2′-hydroxy-3′-(6-(piperidin-4-yloxy)pyridin-3-yl)-[1,1′-biphenyl]-4-yl)-3-methyl-1H-imidazol-2(3H)-one]	1 to 10 nM	300 to 3000 nM		
CC(=O)NC1(C)C2CCC1CN(c1cc(-c3cc(F)cc(-c4ccc(-n5ccn(C)c5=O)c(Cl)c4)c3O)ccn1)C2 (stereo not shown) [Example 780, N-(3-(4-(3′-chloro-5-fluoro-2-hydroxy-4′-(3-methyl-2-oxo-2,3-dihydro-1H-imidazol-1-yl)-[1,1′-biphenyl]-3-yl)pyridin-2-yl)-8-methyl-3-azabicyclo[3.2.1]octan-8-yl)acetamide]	1 to 10 nM	30 to 300 nM		
CN1CCN(c2ccc(-c3cc(F)cc(-c4cc(N5CCNCC5)c5[nH]ncc5c4)c3O)cc2Cl)C1=O [Example 424, 1-(3-chloro-5′-fluoro-2′-hydroxy-3′-(7-(piperazin-1-yl)-1H-indazol-5-yl)-[1,1′-biphenyl]-4-yl)-3-methylimidazolidin-2-one]	0.01 to 1 nM	30 to 300 nM		
Cn1ccn(-c2ccc(-c3cc(F)cc(-c4cc(N5CC[C@@H](N)C5)c5cn[nH]c5c4)c3O)cc2Cl)c1=O [Example 593, (R)-1-(3′-(4-(3-aminopyrrolidin-1-yl)-1H-indazol-6-yl)-3-chloro-5′-fluoro-2′-hydroxy-[1,1′-biphenyl]-4-yl)-3-methyl-1H-imidazol-2(3H)-one]	0.01 to 1 nM	0.3 to 30 nM		
COc1ncc(-c2nc(C)cc(-c3ccc(-n4ccn(C)c4=O)c(Cl)c3)c2O)cc1N1CCN(C(C)(C)C)CC1 [Example 959, 1-(4-(5′-(4-(tert-butyl)piperazin-1-yl)-3-hydroxy-6′-methoxy-6-methyl-[2,3′-bipyridin]-4-yl)-2-chlorophenyl)-3-methyl-1,3-dihydro-2H-imidazol-2-one]			1 to 10 nM	0.3 to 30 nM
Cn1ccn(-c2ccc(-c3cc(F)cc(-c4cc(NC(=O)C5CC5)nc(N5CC[C@H](N)C5)c4)c3O)cc2Cl)c1=O [Example 525, (S)-N-(6-(3-aminopyrrolidin-1-yl)-4-(3′-chloro-5-fluoro-2-hydroxy-4′-(3-methyl-2-oxo-2,3-dihydro-1H-imidazol-1-yl)-[1,1′-biphenyl]-3-yl)pyridin-2-yl)cyclopropanecarboxamide]	1 to 10 nM	0.3 to 30 nM		
Cn1ccn(-c2ccc(-c3cc(F)cc(-c4ccnc(N5CCN(CCCO)CC5)c4)c3O)cc2Cl)c1=O [Example 617, 1-(3-chloro-5′-fluoro-2′-hydroxy-3′-(2-(4-(3-hydroxypropyl)piperazin-1-yl)pyridin-4-yl)-[1,1′-biphenyl]-4-yl)-3-methyl-1H-imrdazol-2(3H)-one]	0.01 to 1 nM	0.3 to 30 nM		
CC(C)N1CCCN(c2cc(-c3cc(F)cc(-c4ccc(-n5ccn(C)c5=O)c(Cl)c4)c3O)ccn2)CC1 [Example 678, 1-(3-chloro-5′-fluoro-2′-hydroxy-3′-(2-(4-isopropyl-1,4-diazepan-1-yl)pyridin-4-yl)-[1,1′-biphenyl]-4-yl)-3-methyl-1H-imidazol-2(3H)-one]	0.01 to 1 nM	0.3 to 30 nM		
Cn1ccn(-c2ccc(-c3cc(F)cc(-c4cnc(C5CC5)c(N5CC(C)(O)C6(CC6)C5)c4)c3O)cc2Cl)c1=O (stereo not shown) [Example 849, 1-(3-Chloro-3′-(6-cyclopropyl-5-(7-hydroxy-7-methyl-5-azaspiro[2.4]heptan-5-yl)pyridin-3-yl)-5′-fluoro-2′-hydroxy-[1,1′-biphenyl]-4-yl)-3-methyl-1H-imidazol-2(3H)-one]			0.01 to 1 nM	30 to 300 nM
Cc1cc(-c2cc(-c3cn[nH]c3)nc(N3CCNCC3)c2)c(O)c(-c2ccc(-n3ccn(C)c3=O)c(Cl)c2)c1 [Example 566]	0.01 to 1 nM	0.3 to 30 nM		

Now from value to compound:

IC50 [1, 3]	GI50 [2, 4]	IC50 [1, 5]	GI50 [2, 6]	SMILES
		0.01 to 1 nM	0.3 to 30 nM	Cc1cc(-c2ccc(-n3ccn(C)c3=O)c(Cl)c2)c(O)c(-c2cnc(C)c(N3CCC4(CCCN4C(C)C)C3)c2)n1 (stereo not shown) [Example 973, 1-(2-chloro-4-(3-hydroxy-5′-(1-isopropyl-1,7-diazaspiro[4.4]nonan-7-yl)-6,6′-dimethyl-[2,3′-bipyridin]-4-yl)phenyl)-3-methyl-1H-imidazol-2(3H)-one]
1 to 10 nM	0.3 to 30 nM			CC(C)N1CCN(c2cc(-c3cc(F)cc(-c4ccc(-n5ccn(C)c5=O)c(Cl)c4)c3O)cnc2OC(F)F)CC1 [Example 824, 1-(3-chloro-3′-(6-(difluoromethoxy)-5-(4-isopropylpiperazin-1-yl)pyridin-3-yl)-5′-fluoro-2′-hydroxy-[1,1′-biphenyl]-4-yl)-3-methyl-1H-imidazol-2(3H)-one]
1 to 10 nM	300 to 3000 nM			CC(=O)Nc1ccc(-c2cccc(-c3ccnc(N4CC[C@H](O)C4)c3)c2O)cc1F [Example 239, (S)-N-(3-fluoro-2′-hydroxy-3′-(2-(3-hydroxypyrrolidin-1-yl)pyridin-4-yl)-[1,1′-biphenyl]-4-yl)acetamide]
		1 to 10 nM	0.3 to 30 nM	CNc1ncc(-c2nc(C)cc(-c3ccc(-n4ccn(C)c4=O)c(Cl)c3)c2O)cc1N1CCC2(CCN2C(C)C)C1 (stereo not shown) [Example 980, 1-(2-chloro-4-(3-hydroxy-5′-(1-isopropyl-1,6-diazaspiro[3.4]octan-6-yl)-6-methyl-6′-(methylamino)-[2,3′-bipyridin]-4-yl)phenyl)-3-methyl-1H-imidazol-2(3H)-one]
1 to 10 nM	0.3 to 30 nM			C[C@@H]1CN(c2cc(-c3cc(F)cc(-c4ccc(-n5ccn(C)c5=O)c(Cl)c4)c3O)ccn2)C[C@H](C)N1 [Example 555, 1-(3-chloro-3′-(2-((3R,5S)-3,5-dimethylpiperazin-1-yl)pyridin-4-yl)-5′-fluoro-2′-hydroxy-[1,1′-biphenyl]-4-yl)-3-methyl-1H-imidazol-2(3H)-one]
		1 to 10 nM	30 to 300 nM	Cn1ccn(-c2ccc(-c3cc(F)cc(-c4ccnc(N5CCC(C)(NCC(F)(F)F)C5)c4)c3O)cc2Cl)c1=O (stereo not shown) [Example 895]
		0.01 to 1 nM	0.3 to 30 nM	COc1ncc(-c2nc(C)cc(-c3ccc(-n4ccn(C)c4=O)c(Cl)c3)c2O)cc1N1CCC2(CCCN2C(C)C)C1 (stereo not shown) [Example 972, 1-(2-chloro-4-(3-hydroxy-5′-(1-isopropyl-1,7-diazaspiro[4.4]nonan-7-yl)-6′-methoxy-6-methyl-[2,3′-bipyridin]-4-yl)phenyl)-3-methyl-1H-imidazol-2(3H)-one]
> 100 nM	300 to 3000 nM			O=C1CCCN1c1c(Cl)cc(-c2cc(F)cc(-c3ccnc(N4CCNCC4)c3)c2O)cc1Cl [Example 402, 1-(3,5-dichloro-5′-fluoro-2′-hydroxy-3′-(2-(piperazin-1-yl)pyridin-4-yl)-[1,1′-biphenyl]-4-yl)pyrrolidin-2-one]
0.01 to 1 nM	0.3 to 30 nM			Cn1ccn(-c2ccc(-c3cc(F)cc(-c4cc(Cl)cc(N5CCN(C(C)(C)C)CC5)c4)c3O)cc2Cl)c1=O [Example 827, 1-(3″-(4-(tert-butyl)piperazin-1-yl)-3,5″-dichloro-5′-fluoro-2′-hydroxy-[1,1′:3′,1″-terphenyl]-4-yl)-3-methyl-1H-imidazol-2(3H)-one]
